Measurements published in US20110070232A1, “Combination Therapy with an Antitumor Alkaloid” (Pharma Mar, S.A., priority 2008, published 2011).
Like-named read-outs stand apart in the source and are kept apart here.

Columns and labels:
Format in all cases: in vivo, mice
BxPC-3 tumors [1] = conditions: mg/kg/day: PM00104 0.90 IV, gemcitabine 180 IP
Method: (§1) Female CB17.SCID mice (Charles River Lab.) were utilized for all experiments. Animals were housed in ventilated rack caging with food and water ad libitum. The mice were acclimated for at least 5 days prior to tumor implantation with a tumor cell suspension.
(§2) The tumor model used in these studies was BxPC-3 cell line, which was obtained from the ATCC (Manassas, Va.).
Bacterial cultures were performed on aliquots of the cells prepared for implantation.
Treatments were initiated on DPI 14.
(§3) Tumor size measurements were recorded twice weekly from the treatment initiation until the termination of the study.
(§4) Mean, standard deviation and standard error of the mean were determined for tumor volume for all animal groups at all assessments. Student's t test was performed on tumor volumes at each measurement day, including at the end of the study, to determine whether there were any statistically significant differences between combination treatment groups and single monotherapy treatment groups.

BxPC-3 tumors [2] = conditions: mg/kg/day: PM00104 0.90 IV
Method: as §1, §2
Treatments were initiated on DPI 9.
as §3, §4

MRI-H-254 tumors = tested on: MRI-H-254 tumors
Method: Female athymic nude mice (Harlan Sprague Dawley, Madison, Wis.) were utilized for all experiments. Animals were housed in ventilated rack caging with food and water ad libitum. The mice were acclimated for at least 5 days prior to tumor implantation with tumor fragments. The Vehicle Control group contained 11 mice, groups 2-6 contained 8 mice/group, and the rest of groups contained 9 mice/group.
This cell line was grown and implanted to the animals as described in Example 11.
Tumor measurements were determined as disclosed in Example 4. […] Treatments were initiated on DPI 17.
PM00104 was provided in the form of vials of lyophilized PM00104 powder which was reconstituted with water for injection.
as §3, §4
The definition and criteria for the evaluation of potentiation and the degree of additivity for the combination therapy were the same as those disclose in Example 4.

[3] = PM00104 0.90 IV, doxorubicin 6 IP, paclitaxel 12.5 IP mg/kg/day (G2, G5, G6, G7, G8)

Structure (SMILES): Nc1ccn([C@@H]2O[C@H](CO)[C@@H](O)C2(F)F)c(=O)n1 [Gemcitabine, gemcitabine]
- % Inhibition (BxPC-3 tumors [1]; day 14): 3.1%
- % T/C on day (BxPC-3 tumors [1]; day 14): 96.9%
- % Inhibition (BxPC-3 tumors [1]; day 16): −44.6%
- % T/C on day (BxPC-3 tumors [1]; day 16): 144.6%
- % Inhibition (BxPC-3 tumors [1]; day 19): −15.6%
- % T/C on day (BxPC-3 tumors [1]; day 19): 115.6%
- % Inhibition (BxPC-3 tumors [1]; day 22): 25.5%
- % T/C on day (BxPC-3 tumors [1]; day 22): 74.5%
- % Inhibition (BxPC-3 tumors [1]; day 26): −6.1%
- % T/C on day (BxPC-3 tumors [1]; day 26): 106.1%
- % Inhibition (BxPC-3 tumors [1]; day 29): 20.7%
- % T/C on day (BxPC-3 tumors [1]; day 29): 79.3%
- % Inhibition (BxPC-3 tumors [1]; day 34): 31.3%
- % T/C on day (BxPC-3 tumors [1]; day 34): 68.7%
- % Inhibition (BxPC-3 tumors [1]; day 40): −33.9%
- % T/C on day (BxPC-3 tumors [1]; day 40): 133.9%

Structure (SMILES): C#Cc1cccc(Nc2ncnc3cc(OCCOC)c(OCCOC)cc23)c1 [erlotinib]
- % Inhibition (BxPC-3 tumors [2]; day 9, erlotinib 15 PO): 0.5%
- % T/C on day (BxPC-3 tumors [2]; day 9, erlotinib 15 PO): 99.5%
- % Inhibition (BxPC-3 tumors [2]; day 9, erlotinib 30 PO): −4.2%
- % T/C on day (BxPC-3 tumors [2]; day 9, erlotinib 30 PO): 104.2%
- % Inhibition (BxPC-3 tumors [2]; day 9, erlotinib 50 PO): −2.5%
- % T/C on day (BxPC-3 tumors [2]; day 9, erlotinib 50 PO): 102.5%
- % Inhibition (BxPC-3 tumors [2]; day 12, erlotinib 15 PO): 24.1%
- % T/C on day (BxPC-3 tumors [2]; day 12, erlotinib 15 PO): 75.9%
- % Inhibition (BxPC-3 tumors [2]; day 12, erlotinib 30 PO): 15.1%
- % T/C on day (BxPC-3 tumors [2]; day 12, erlotinib 30 PO): 84.9%
- % Inhibition (BxPC-3 tumors [2]; day 12, erlotinib 50 PO): 15.1%
- % T/C on day (BxPC-3 tumors [2]; day 12, erlotinib 50 PO): 84.9%
- % Inhibition (BxPC-3 tumors [2]; day 15, erlotinib 15 PO): 7.8%
- % T/C on day (BxPC-3 tumors [2]; day 15, erlotinib 15 PO): 92.2%
- % Inhibition (BxPC-3 tumors [2]; day 15, erlotinib 30 PO): −5.8%
- % T/C on day (BxPC-3 tumors [2]; day 15, erlotinib 30 PO): 105.8%
- % Inhibition (BxPC-3 tumors [2]; day 15, erlotinib 50 PO): −14.2%
- % T/C on day (BxPC-3 tumors [2]; day 15, erlotinib 50 PO): 114.2%
- % Inhibition (BxPC-3 tumors [2]; day 19, erlotinib 15 PO): 21.0%
- % T/C on day (BxPC-3 tumors [2]; day 19, erlotinib 15 PO): 79.0%
- % Inhibition (BxPC-3 tumors [2]; day 19, erlotinib 30 PO): 6.5%
- % T/C on day (BxPC-3 tumors [2]; day 19, erlotinib 30 PO): 93.5%
- % Inhibition (BxPC-3 tumors [2]; day 19, erlotinib 50 PO): −2.6%
- % T/C on day (BxPC-3 tumors [2]; day 19, erlotinib 50 PO): 102.6%
- % Inhibition (BxPC-3 tumors [2]; day 21, erlotinib 15 PO): 33.8%
- % T/C on day (BxPC-3 tumors [2]; day 21, erlotinib 15 PO): 66.2%
- % Inhibition (BxPC-3 tumors [2]; day 21, erlotinib 30 PO): 16.3%
- % T/C on day (BxPC-3 tumors [2]; day 21, erlotinib 30 PO): 83.7%
- % Inhibition (BxPC-3 tumors [2]; day 21, erlotinib 50 PO): 15.5%
- % T/C on day (BxPC-3 tumors [2]; day 21, erlotinib 50 PO): 84.5%
- % Inhibition (BxPC-3 tumors [2]; day 26, erlotinib 15 PO): 7.5%
- % T/C on day (BxPC-3 tumors [2]; day 26, erlotinib 15 PO): 92.5%
- % Inhibition (BxPC-3 tumors [2]; day 26, erlotinib 30 PO): −14.2%
- % T/C on day (BxPC-3 tumors [2]; day 26, erlotinib 30 PO): 114.2%
- % Inhibition (BxPC-3 tumors [2]; day 26, erlotinib 50 PO): 9.0%
- % T/C on day (BxPC-3 tumors [2]; day 26, erlotinib 50 PO): 91.0%
- % Inhibition (BxPC-3 tumors [2]; day 29, erlotinib 15 PO): 16.2%
- % T/C on day (BxPC-3 tumors [2]; day 29, erlotinib 15 PO): 83.8%
- % Inhibition (BxPC-3 tumors [2]; day 29, erlotinib 30 PO): 15.2%
- % T/C on day (BxPC-3 tumors [2]; day 29, erlotinib 30 PO): 84.8%
- % Inhibition (BxPC-3 tumors [2]; day 29, erlotinib 50 PO): 40.7%
- % T/C on day (BxPC-3 tumors [2]; day 29, erlotinib 50 PO): 59.3%
- % Inhibition (BxPC-3 tumors [2]; day 33, erlotinib 15 PO): 7.9%
- % T/C on day (BxPC-3 tumors [2]; day 33, erlotinib 15 PO): 92.1%
- % Inhibition (BxPC-3 tumors [2]; day 33, erlotinib 30 PO): 13.0%
- % T/C on day (BxPC-3 tumors [2]; day 33, erlotinib 30 PO): 87.0%
- % Inhibition (BxPC-3 tumors [2]; day 33, erlotinib 50 PO): 12.1%
- % T/C on day (BxPC-3 tumors [2]; day 33, erlotinib 50 PO): 87.9%
- % Inhibition (BxPC-3 tumors [2]; day 40, erlotinib 15 PO): 18.8%
- % T/C on day (BxPC-3 tumors [2]; day 40, erlotinib 15 PO): 81.2%
- % Inhibition (BxPC-3 tumors [2]; day 40, erlotinib 30 PO): 14.5%
- % T/C on day (BxPC-3 tumors [2]; day 40, erlotinib 30 PO): 85.5%
- % Inhibition (BxPC-3 tumors [2]; day 40, erlotinib 50 PO): 15.4%
- % T/C on day (BxPC-3 tumors [2]; day 40, erlotinib 50 PO): 84.6%

Structure (SMILES): CC(=O)O[C@H]1C(=O)[C@@]2(C)[C@H]([C@H](OC(=O)c3ccccc3)[C@]3(O)C[C@H](OC(=O)[C@H](O)[C@@H](NC(=O)c4ccccc4)c4ccccc4)C(C)=C1C3(C)C)[C@]1(OC(C)=O)CO[C@@H]1C[C@@H]2O [paclitaxel]
- % T/C on day 17 (MRI-H-254 tumors; [3]): 99.5%
- % T/C on day 20 (MRI-H-254 tumors; [3]): 86.2%
- % T/C on day 24 (MRI-H-254 tumors; [3]): 71.9%
- % T/C on day 27 (MRI-H-254 tumors; [3]): 77.2%
- % T/C on day 32 (MRI-H-254 tumors; [3]): 67.9%
- % T/C on day 35 (MRI-H-254 tumors; [3]): 52.3%
- % T/C on day 39 (MRI-H-254 tumors; [3]): 51.7%
- % T/C on day 47 (MRI-H-254 tumors; [3]): 69.0%
- % Inhibition (MRI-H-254 tumors; day 14, PM00104 0.23, doxorubicin 6, paclitaxel 12.5 mg/kg/day): 0.5%
- % Inhibition (MRI-H-254 tumors; day 14, PM00104 0.45, doxorubicin 6, paclitaxel 12.5 mg/kg/day): 0.5%
- % Inhibition (MRI-H-254 tumors; day 14, PM00104 0.90, paclitaxel 12.5 mg/kg/day): 0.5%
- % Inhibition (MRI-H-254 tumors; day 20, PM00104 0.23, doxorubicin 6, paclitaxel 12.5 mg/kg/day): 13.8%
- % Inhibition (MRI-H-254 tumors; day 20, PM00104 0.45, doxorubicin 6, paclitaxel 12.5 mg/kg/day): 13.8%
- % Inhibition (MRI-H-254 tumors; day 20, PM00104 0.90, paclitaxel 12.5 mg/kg/day): 13.8%
- % Inhibition (MRI-H-254 tumors; day 24, PM00104 0.23, doxorubicin 6, paclitaxel 12.5 mg/kg/day): 28.1%
- % Inhibition (MRI-H-254 tumors; day 24, PM00104 0.45, doxorubicin 6, paclitaxel 12.5 mg/kg/day): 28.1%
- % Inhibition (MRI-H-254 tumors; day 24, PM00104 0.90, paclitaxel 12.5 mg/kg/day): 28.1%
- % Inhibition (MRI-H-254 tumors; day 27, PM00104 0.23, doxorubicin 6, paclitaxel 12.5 mg/kg/day): 22.8%
- % Inhibition (MRI-H-254 tumors; day 27, PM00104 0.45, doxorubicin 6, paclitaxel 12.5 mg/kg/day): 22.8%
- % Inhibition (MRI-H-254 tumors; day 27, PM00104 0.90, paclitaxel 12.5 mg/kg/day): 22.8%
- % Inhibition (MRI-H-254 tumors; day 32, PM00104 0.23, doxorubicin 6, paclitaxel 12.5 mg/kg/day): 32.1%
- % Inhibition (MRI-H-254 tumors; day 32, PM00104 0.45, doxorubicin 6, paclitaxel 12.5 mg/kg/day): 32.1%
- % Inhibition (MRI-H-254 tumors; day 32, PM00104 0.90, paclitaxel 12.5 mg/kg/day): 32.1%
- % Inhibition (MRI-H-254 tumors; day 35, PM00104 0.23, doxorubicin 6, paclitaxel 12.5 mg/kg/day): 47.7%
- % Inhibition (MRI-H-254 tumors; day 35, PM00104 0.45, doxorubicin 6, paclitaxel 12.5 mg/kg/day): 47.7%
- % Inhibition (MRI-H-254 tumors; day 35, PM00104 0.90, paclitaxel 12.5 mg/kg/day): 47.7%
- % Inhibition (MRI-H-254 tumors; day 39, PM00104 0.23, doxorubicin 6, paclitaxel 12.5 mg/kg/day): 48.3%
- % Inhibition (MRI-H-254 tumors; day 39, PM00104 0.45, doxorubicin 6, paclitaxel 12.5 mg/kg/day): 48.3%
- % Inhibition (MRI-H-254 tumors; day 39, PM00104 0.90, paclitaxel 12.5 mg/kg/day): 48.3%
- % Inhibition (MRI-H-254 tumors; day 47, PM00104 0.23, doxorubicin 6, paclitaxel 12.5 mg/kg/day): 31.0%
- % Inhibition (MRI-H-254 tumors; day 47, PM00104 0.45, doxorubicin 6, paclitaxel 12.5 mg/kg/day): 31.0%
- % Inhibition (MRI-H-254 tumors; day 47, PM00104 0.90, paclitaxel 12.5 mg/kg/day): 31.0%
